Laboratory results published in US20250353891A1 (MEDIMMUNE LIMITED, priority 2022, published 2025).
Starred links: 1 amine or outer side, 2 acyl side, 3 side chain; linkers in the order of their positions; H or OH if unused. Non-standard residues stand in square brackets, D forms with d. Residues, ends and D or L forms follow the SMILES beside them. Groups on a side chain read outwards from the residue. *: point of attachment. Trp(5-Br) = N[C@@H](Cc1c[nH]c2ccc(Br)cc12)C(=O)O; Trp(1-Me) = Cn1cc(C[C@H](N)C(=O)O)c2ccccc21; Bip = N[C@@H](Cc1ccc(-c2ccccc2)cc1)C(=O)O; C18 diacid = O=C(O)CCCCCCCCCCCCCCCCC(=O)*; γGlu = O=C(O)[C@H](CCC(=O)[*:2])N[*:1]; αMeF = C[C@](N)(Cc1ccccc1)C(=O)O; AEEA = NCCOCCOCC(=O)O; Aib = CC(C)(N)C(=O)O

Key:
[1] = molecular target: human glucagon receptor (hGCGR) (Homo sapiens, UniProt P47871); assay: cAMP production (HTRF) in CHO cells expressing hGCGR; assay type: cell-based; parameters: expressed in transfected cells; details: Table 6, peptides modified at position 17; cAMP in CHO hGCGR cells; geometric mean; read-out: hGluc-R EC50
Chain of human glucagon receptor (hGCGR) (P47871 26-477): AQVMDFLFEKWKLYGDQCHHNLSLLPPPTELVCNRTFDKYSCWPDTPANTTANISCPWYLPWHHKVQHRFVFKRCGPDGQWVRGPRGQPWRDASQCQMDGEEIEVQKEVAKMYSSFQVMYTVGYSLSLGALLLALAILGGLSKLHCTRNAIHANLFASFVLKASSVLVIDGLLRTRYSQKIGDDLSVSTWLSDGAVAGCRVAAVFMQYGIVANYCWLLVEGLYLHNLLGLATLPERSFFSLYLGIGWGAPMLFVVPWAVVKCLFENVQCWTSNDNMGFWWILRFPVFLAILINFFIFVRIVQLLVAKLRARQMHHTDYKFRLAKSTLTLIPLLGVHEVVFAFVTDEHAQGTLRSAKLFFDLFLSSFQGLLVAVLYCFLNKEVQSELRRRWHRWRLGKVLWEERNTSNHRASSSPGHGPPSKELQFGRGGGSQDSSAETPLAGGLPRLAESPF
How it was run: (§1)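 Cells were resuspended in assay buffer at batch-optimized density, typically 1×10^5 cells/mL for hGLP-1R and 2×10^5 cells/mL for hGCGR. After 30 min incubation at room temperature with compound, cAMP was measured by two-step HTRF. EC50 values came from 4-parameter logistic fits of % Delta F.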

[2] = molecular target: human GLP-1 receptor (hGLP-1R) (Homo sapiens, UniProt P43220); assay: cAMP production (HTRF) in CHO cells expressing hGLP-1R; assay type: cell-based; parameters: expressed in transfected cells; details: for EC50: Table 6, peptides modified at position 17, cAMP in CHO hGLP-1R cells, geometric mean, read-out: hGLP-1R EC50; for % Relative Potency Ratio: Table 6, % GLP-1R activity relative to GLP-1 / % GlucR activity relative to glucagon
Chain of human GLP-1 receptor (hGLP-1R) (P43220 24-463): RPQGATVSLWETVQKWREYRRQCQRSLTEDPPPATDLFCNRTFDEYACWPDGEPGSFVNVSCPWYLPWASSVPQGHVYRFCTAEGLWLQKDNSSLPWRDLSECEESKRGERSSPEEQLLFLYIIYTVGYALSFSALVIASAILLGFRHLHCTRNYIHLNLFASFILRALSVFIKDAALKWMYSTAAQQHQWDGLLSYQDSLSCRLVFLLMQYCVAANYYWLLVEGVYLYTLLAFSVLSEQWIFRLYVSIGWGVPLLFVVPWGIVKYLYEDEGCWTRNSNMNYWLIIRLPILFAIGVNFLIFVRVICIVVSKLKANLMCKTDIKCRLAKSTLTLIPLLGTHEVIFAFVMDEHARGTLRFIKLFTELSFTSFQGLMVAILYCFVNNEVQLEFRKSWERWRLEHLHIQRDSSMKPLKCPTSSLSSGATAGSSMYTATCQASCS
How it was run: as §1

Q: Which EC50 [1] does the source give for `CC(C)C[C@H](NC(=O)[C@H](Cc1c[nH]c2ccccc12)NC(=O)[C@H](CCC(N)=O)NC(=O)[C@@H](NC(=O)[C@H](Cc1ccccc1)NC(=O)[C@H](CC(=O)O)NC(=O)[C@H](CCCNC(=N)N)NC(=O)[C@H](C)NC(=O)[C@H](CCCNC(=N)N)NC(=O)[C@H](CCCCNC(=O)COCCOCCNC(=O)COCCOCCNC(=O)CC[C@H](NC(=O)CC[C@H](NC(=O)CCCCCCCCCCCCCCCCC(=O)O)C(=O)O)C(=O)O)NC(=O)[C@@H](NC(=O)[C@H](CC(=O)O)NC(=O)[C@H](CC(C)C)NC(=O)[C@](C)(Cc1ccccc1)NC(=O)[C@H](CCCCN)NC(=O)[C@H](CO)NC(=O)[C@@H](NC(=O)[C@H](CC(=O)O)NC(=O)[C@H](CO)NC(=O)[C@@H](NC(=O)[C@H](Cc1ccccc1)NC(=O)[C@@H](NC(=O)CNC(=O)[C@H](CCC(N)=O)NC(=O)C(C)(C)NC(=O)[C@@H](N)Cc1c[nH]cn1)[C@@H](C)O)[C@@H](C)O)C(C)C)[C@@H](C)O)C(C)C)C(=O)N[C@@H](CC(C)C)C(=O)N[C@@H](CCC(=O)O)C(=O)NC(C)(C)C(=O)NCC(N)=O` [Peptide 428] here?
A: Its EC50 is 0.0105 nM.

Q: And the EC50 [2]?
A: Its EC50 is 0.0331 nM.

Q: And the “% Relative Potency Ratio” value [2]?
A: Its value is 0.6.

Q: Which EC50 [1] does the source give for `CC(C)C[C@H](NC(=O)[C@H](Cc1c[nH]c2ccccc12)NC(=O)[C@H](CCCNC(=N)N)NC(=O)[C@@H](NC(=O)[C@H](Cc1ccccc1)NC(=O)[C@H](CC(=O)O)NC(=O)[C@H](CCC(N)=O)NC(=O)[C@H](C)NC(=O)[C@H](CCCNC(=N)N)NC(=O)[C@H](CCCCNC(=O)COCCOCCNC(=O)COCCOCCNC(=O)CC[C@H](NC(=O)CCCCCCCCCCCCCCCCC(=O)O)C(=O)O)NC(=O)[C@H](CO)NC(=O)[C@H](CC(=O)O)NC(=O)[C@H](CC(C)C)NC(=O)[C@](C)(Cc1ccccc1)NC(=O)[C@H](CCCCN)NC(=O)[C@H](CO)NC(=O)[C@@H](NC(=O)[C@H](CC(=O)O)NC(=O)[C@H](CO)NC(=O)[C@@H](NC(=O)[C@H](Cc1ccccc1)NC(=O)[C@@H](NC(=O)CNC(=O)[C@H](CCC(N)=O)NC(=O)C(C)(C)NC(=O)[C@@H](N)Cc1c[nH]cn1)[C@@H](C)O)[C@@H](C)O)C(C)C)C(C)C)C(=O)N[C@@H](CCC(=O)O)C(=O)N[C@@H](C)C(=O)NC(C)(C)C(=O)NCC(N)=O` [Peptide 429] (H-H[Aib]QGTFTSDVSK[αMeF]LDSK([AEEA-AEEA-γGlu-C18 diacid])RAQDFVRWLEA[Aib]G-NH2; N-terminus assumed) here?
A: The EC50 was 0.144 nM.

Q: And the EC50 [2]?
A: Its EC50 is 0.015 nM.

Q: What about the “% Relative Potency Ratio” value [2] of the same molecule?
A: The value was 19.0.

Q: `CC(C)C[C@H](NC(=O)[C@H](Cc1c[nH]c2ccccc12)NC(=O)[C@H](CCCNC(=N)N)NC(=O)[C@@H](NC(=O)[C@H](Cc1ccccc1)NC(=O)[C@H](CC(=O)O)NC(=O)[C@H](CCC(N)=O)NC(=O)[C@H](C)NC(=O)[C@H](CCCNC(=N)N)NC(=O)[C@H](CCCCNC(=O)COCCOCCNC(=O)COCCOCCNC(=O)CC[C@H](NC(=O)CC[C@H](NC(=O)CCCCCCCCCCCCCCCCC(=O)O)C(=O)O)C(=O)O)NC(=O)[C@H](CO)NC(=O)[C@H](CC(=O)O)NC(=O)[C@H](CC(C)C)NC(=O)[C@](C)(Cc1ccccc1)NC(=O)[C@H](CCCCN)NC(=O)[C@H](CO)NC(=O)[C@@H](NC(=O)[C@H](CC(=O)O)NC(=O)[C@H](CO)NC(=O)[C@@H](NC(=O)[C@H](Cc1ccccc1)NC(=O)[C@@H](NC(=O)CNC(=O)[C@H](CCC(N)=O)NC(=O)C(C)(C)NC(=O)[C@@H](N)Cc1c[nH]cn1)[C@@H](C)O)[C@@H](C)O)C(C)C)C(C)C)C(=O)N[C@@H](CCC(=O)O)C(=O)N[C@@H](C)C(=O)NC(C)(C)C(=O)NCC(N)=O` [Peptide 430] (H-H[Aib]QGTFTSDVSK[αMeF]LDSK([AEEA-AEEA-γGlu-γGlu-C18 diacid])RAQDFVRWLEA[Aib]G-NH2; N-terminus assumed) was tested. Which EC50 [1] did it give?
A: Its EC50 is 0.16 nM.

Q: What about the EC50 [2] of the same molecule?
A: The EC50 was 0.0244 nM.

Q: And the “% Relative Potency Ratio” value [2]?
A: The value was 13.0.

Q: Which EC50 [1] does the source give for `CC(C)C[C@H](NC(=O)[C@H](Cc1c[nH]c2ccccc12)NC(=O)[C@H](C)NC(=O)[C@@H](NC(=O)[C@H](Cc1ccccc1)NC(=O)[C@H](CC(=O)O)NC(=O)[C@H](CCC(N)=O)NC(=O)[C@H](C)NC(=O)[C@H](CCCNC(=N)N)NC(=O)[C@H](CCCCNC(=O)COCCOCCNC(=O)COCCOCCNC(=O)CC[C@H](NC(=O)CC[C@H](NC(=O)CCCCCCCCCCCCCCCCC(=O)O)C(=O)O)C(=O)O)NC(=O)[C@@H](NC(=O)[C@H](CC(=O)O)NC(=O)[C@H](CC(C)C)NC(=O)[C@](C)(Cc1ccccc1)NC(=O)[C@H](CCCCN)NC(=O)[C@H](CO)NC(=O)[C@@H](NC(=O)[C@H](CC(=O)O)NC(=O)[C@H](CO)NC(=O)[C@@H](NC(=O)[C@H](Cc1ccccc1)NC(=O)[C@@H](NC(=O)CNC(=O)[C@H](CCC(N)=O)NC(=O)C(C)(C)NC(=O)[C@@H](N)Cc1c[nH]cn1)[C@@H](C)O)[C@@H](C)O)C(C)C)[C@@H](C)O)C(C)C)C(=O)N[C@@H](CCC(=O)O)C(=O)N[C@@H](C)C(=O)NC(C)(C)C(=O)NCC(N)=O` [Peptide 431] (H-H[Aib]QGTFTSDVSK[αMeF]LDTK([AEEA-AEEA-γGlu-γGlu-C18 diacid])RAQDFVAWLEA[Aib]G-NH2; N-terminus assumed) here?
A: Its EC50 is 0.194 nM.

Q: What about the EC50 [2] of the same molecule?
A: The EC50 was 0.0446 nM.

Q: And the “% Relative Potency Ratio” value [2]?
A: Its value is 8.6.

Q: `CC(C)C[C@H](NC(=O)[C@H](Cc1ccc(-c2ccccc2)cc1)NC(=O)[C@H](CCCNC(=N)N)NC(=O)[C@@H](NC(=O)[C@H](Cc1ccccc1)NC(=O)[C@H](CC(=O)O)NC(=O)[C@H](CCC(N)=O)NC(=O)[C@H](C)NC(=O)[C@H](CCCNC(=N)N)NC(=O)[C@H](CCCCNC(=O)COCCOCCNC(=O)COCCOCCNC(=O)CC[C@H](NC(=O)CCCCCCCCCCCCCCCCC(=O)O)C(=O)O)NC(=O)[C@H](CO)NC(=O)[C@H](CC(=O)O)NC(=O)[C@H](CC(C)C)NC(=O)[C@](C)(Cc1ccccc1)NC(=O)[C@H](CCCCN)NC(=O)[C@H](CO)NC(=O)[C@@H](NC(=O)[C@H](CC(=O)O)NC(=O)[C@H](CO)NC(=O)[C@@H](NC(=O)[C@H](Cc1ccccc1)NC(=O)[C@@H](NC(=O)CNC(=O)[C@H](CCC(N)=O)NC(=O)C(C)(C)NC(=O)[C@@H](N)Cc1c[nH]cn1)[C@@H](C)O)[C@@H](C)O)C(C)C)C(C)C)C(=O)N[C@@H](CC(C)C)C(=O)NC(C)(C)C(=O)N[C@@H](CCC(=O)O)C(=O)O` [Peptide 432] (H-H[Aib]QGTFTSDVSK[αMeF]LDSK([AEEA-AEEA-γGlu-C18 diacid])RAQDFVR[Bip]LL[Aib]E-OH) was tested. Which EC50 [1] did it give?
A: The EC50 was 1.16 nM.

Q: What about the EC50 [2] of the same molecule?
A: The EC50 was 1.38 nM.

Q: What about the “% Relative Potency Ratio” value [2] of the same molecule?
A: The value was 1.7.

Q: For `CC(C)C[C@H](NC(=O)[C@H](Cc1cn(C)c2ccccc12)NC(=O)[C@H](CCCNC(=N)N)NC(=O)[C@@H](NC(=O)[C@H](Cc1ccccc1)NC(=O)[C@H](CC(=O)O)NC(=O)[C@H](CCC(N)=O)NC(=O)[C@H](C)NC(=O)[C@H](CCCNC(=N)N)NC(=O)[C@H](CCCCNC(=O)COCCOCCNC(=O)COCCOCCNC(=O)CC[C@H](NC(=O)CCCCCCCCCCCCCCCCC(=O)O)C(=O)O)NC(=O)[C@H](CO)NC(=O)[C@H](CC(=O)O)NC(=O)[C@H](CC(C)C)NC(=O)[C@](C)(Cc1ccccc1)NC(=O)[C@H](CCCCN)NC(=O)[C@H](CO)NC(=O)[C@@H](NC(=O)[C@H](CC(=O)O)NC(=O)[C@H](CO)NC(=O)[C@@H](NC(=O)[C@H](Cc1ccccc1)NC(=O)[C@@H](NC(=O)CNC(=O)[C@H](CCC(N)=O)NC(=O)C(C)(C)NC(=O)[C@@H](N)Cc1c[nH]cn1)[C@@H](C)O)[C@@H](C)O)C(C)C)C(C)C)C(=O)N[C@@H](CC(C)C)C(=O)NC(C)(C)C(=O)N[C@@H](CCC(=O)O)C(=O)O` [Peptide 433] (H-H[Aib]QGTFTSDVSK[αMeF]LDSK([AEEA-AEEA-γGlu-C18 diacid])RAQDFVR[Trp(1-Me)]LL[Aib]E-OH; N-terminus assumed), which EC50 [1] is on record?
A: The EC50 was 10.5 nM.

Q: And the EC50 [2]?
A: The EC50 was 4.46 nM.

Q: And the “% Relative Potency Ratio” value [2]?
A: The value was 4.6.

Q: `CC(C)C[C@H](NC(=O)[C@H](Cc1c[nH]c2ccc(Br)cc12)NC(=O)[C@H](CCCNC(=N)N)NC(=O)[C@@H](NC(=O)[C@H](Cc1ccccc1)NC(=O)[C@H](CC(=O)O)NC(=O)[C@H](CCC(N)=O)NC(=O)[C@H](C)NC(=O)[C@H](CCCNC(=N)N)NC(=O)[C@H](CCCCNC(=O)COCCOCCNC(=O)COCCOCCNC(=O)CC[C@H](NC(=O)CCCCCCCCCCCCCCCCC(=O)O)C(=O)O)NC(=O)[C@H](CO)NC(=O)[C@H](CC(=O)O)NC(=O)[C@H](CC(C)C)NC(=O)[C@](C)(Cc1ccccc1)NC(=O)[C@H](CCCCN)NC(=O)[C@H](CO)NC(=O)[C@@H](NC(=O)[C@H](CC(=O)O)NC(=O)[C@H](CO)NC(=O)[C@@H](NC(=O)[C@H](Cc1ccccc1)NC(=O)[C@@H](NC(=O)CNC(=O)[C@H](CCC(N)=O)NC(=O)C(C)(C)NC(=O)[C@@H](N)Cc1c[nH]cn1)[C@@H](C)O)[C@@H](C)O)C(C)C)C(C)C)C(=O)N[C@@H](CC(C)C)C(=O)NC(C)(C)C(=O)N[C@@H](CCC(=O)O)C(=O)O` [Peptide 434] (H-H[Aib]QGTFTSDVSK[αMeF]LDSK([AEEA-AEEA-γGlu-C18 diacid])RAQDFVR[Trp(5-Br)]LL[Aib]E-OH; N-terminus assumed) was tested. Which EC50 [1] did it give?
A: The EC50 was 0.294 nM.

Q: And the EC50 [2]?
A: The EC50 was 0.153 nM.

Q: And the “% Relative Potency Ratio” value [2]?
A: The value was 3.8.
